Measured values as given in paper PMC10056567, “Structural Insights into the Ligand–LsrK Kinase Binding Mode: A Step Forward in the Discovery of Novel Antimicrobial Agents” (Molecules, 2023).
Values belong to the compound of their own block, whether it stands above or below them.

What was measured:
LsrK (ecLsrK) [1] = molecular target: T1, LsrK (ecLsrK) (Escherichia coli, UniProt P77432); assay: tryptophan fluorescence quenching, modified Stern-Volmer; assay type: binding; set-up: 530 residues; settings: 0.1 uM LsrK, PBS pH 7.4, 25 °C
T1 sequence (P77432 whole entry): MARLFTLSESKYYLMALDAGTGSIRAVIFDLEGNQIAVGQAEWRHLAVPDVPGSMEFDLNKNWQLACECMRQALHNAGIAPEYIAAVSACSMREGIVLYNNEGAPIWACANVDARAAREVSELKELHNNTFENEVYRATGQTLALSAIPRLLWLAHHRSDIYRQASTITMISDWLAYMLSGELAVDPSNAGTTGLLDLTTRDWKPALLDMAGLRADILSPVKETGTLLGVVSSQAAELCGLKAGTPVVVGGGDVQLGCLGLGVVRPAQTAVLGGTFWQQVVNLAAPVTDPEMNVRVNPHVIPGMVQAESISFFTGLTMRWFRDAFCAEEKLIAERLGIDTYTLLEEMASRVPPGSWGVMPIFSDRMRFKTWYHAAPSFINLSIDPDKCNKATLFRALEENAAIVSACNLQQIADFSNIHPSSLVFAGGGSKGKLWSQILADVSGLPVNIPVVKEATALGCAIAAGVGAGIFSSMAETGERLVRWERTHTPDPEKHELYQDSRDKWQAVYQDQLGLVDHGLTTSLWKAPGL

LsrK (ecLsrK) [2] = molecular target: T1, LsrK (ecLsrK); assay: biochemical

Kd (LsrK (ecLsrK) [1]): 190 nM
SMILES: COc1cc(C)cc2cc3c(c(O)c12)C(=O)CC[C@H]3O [(R)-ASME]

Kd (LsrK (ecLsrK) [1]): 78 nM
SMILES: COC(=O)[C@@H]1OC(=O)C[C@@]1(O)C(=O)OC [Hib-ester, dimethyl (2R,3S)-3-hydroxy-5-oxotetrahydrofuran-2,3-dicarboxylate]

Kd (LsrK (ecLsrK) [1]): 217 ± 8 nM
SMILES: Cc1cc(O)c(C=O)c2c1C(=O)Oc1c(COC(=O)/C=C/C(=O)O)c(O)c(C(=O)O)c(C)c1O2 [FP, fumarprotocetraric acid]

Further lines, the compound ahead of its results:

SMILES: O=CC1=C(O)C=CCO1 [Hib-carbaldehyde, 5-hydroxy-2H-pyran-6-carbaldehyde]
Kd (LsrK (ecLsrK) [1]): 140 nM

SMILES: Nc1ncnc2c1ncn2[C@@H]1O[C@H](COP(=O)(O)OP(=O)(O)OP(=O)(O)O)[C@@H](O)[C@H]1O [ATP]
Kd (LsrK (ecLsrK) [2]): 5070 ± 230 nM
